The numbers were not newly measured in patent US5204349A, “Amide-substituted derivatives of spiroindanylcamphorsulfonyl oxytocin antagonists” (priority 1991, dated 1993), which cites them from elsewhere.

The conditions of series [1]: compared with ritodrine.
The mark [2] stands for this setting: tocolytic use, mother and infant.

Like-named read-outs stand apart in the source and are kept apart here.

In the case of `CC(NCCc1ccc(O)cc1)C(O)c1ccc(O)cc1` (stereo not drawn) [Ritodrine], under setting [2], the side effects entry is “causes a number of cardiovascular and metabolic side effects in the mother, including tachycardia, increased renin secretion, hyperglycemia (and reactive hypoglycemia in the infant)”.

Regarding `CC(C)(C)NCC(O)c1cc(O)cc(O)c1` (stereo not drawn) [terbutaline], under setting [2], the side effects entry is on record as “side effects similar to those of ritodrine”.

`CCO` [Ethanol]: in series [1], the “effectiveness in preventing premature labor” value is listed as “as effective as ritodrine in preventing premature labor” and the “reduction in the incidence of fetal respiratory distress” value was “does not produce a corresponding reduction in the incidence of fetal respiratory distress that administration of ritodrine does”.

As for `O=S(=O)([O-])[O-].[Mg+2]` [Magnesium sulfate], the “adverse effects at plasma concentrations above the therapeutic range” value (plasma concentrations above 4 to 8 mg/dL) was “can cause inhibition of cardiac conduction and neuromuscular transmission, respiratory depression and cardiac arrest”.

Consider `CC(C)(C)NCC(O)c1ccc(O)c(CO)c1` (stereo not drawn) [albuterol], for which the side effects entry (in vivo) is recorded as “side effects similar to those of ritodrine”.
